Assays:
[1] = system: human TNF-α transgenic mice; experiment: RA paw score in human TNF-α transgenic mice
Description: For human TNF-α animal disease models, two transgenic models were used. The tg197 mice were acquired from Pasteur Hellenic Institute (Athens, Greece), and the B6.SJL-Tg(TNF) N21 mice were purchased from Taconic, Inc. (Germantown, N.Y.). The genotypes of both human TNF-α transgenic mouse models were performed by suppliers. […] All treatments were by tail vein injection twice a week. […] A similar dose regimen was used for B6.SJL-Tg(TNF) N21 mice. Clinical scores were based on a previously described scoring system (2, 3) as follows: 0 (normal), 1 (edema or distortion of paw or ankle joints), 2 (distortion of paw and ankle joints), or 3 (ankylosis of wrist or ankle joints). The sum of all four paws was scored twice a week with a maximum score of 12 per mouse.
For Hellenic transgenic mice, RA scores were determined (blinded to treatment) using the following criteria: 0, normal; 1, edema or distortion of paw or ankle joints; 2 distortion of paw and ankle joints; 3, ankylosis of wrist or ankle joints.
Human NF-α expressing mice were purchase from the Hellenic Pasture Institute, Greece) at 5 weeks old. […] During the injection periods, plasma samples were collected for ELISA testing (R&D Systems, Cat#SSTA00C), and paw scores were taken twice a week as an accepted index of RA disease progression and therapeutic efficacy (Table 19).
Due to the difference in the starting point (some animals present with scores at earlier points), the scores have been adjusted to 0 for all animals in the experiments. Each paw is given a score between 0 and 3, with the highest score of 12, according to the following scoring index. • 0: Normal • 1: edema or distortion of paw or ankle joints • 2: distortion of paw and ankle joints • 3: ankylosis of wrist or ankle joints.

[2] = system: TNF-α mRNA; experiment: TNF-α knockdown in human monocytes (branch DNA);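 also: LPS-activated human CD14+ monocytes, TNF-α mRNA read by branched DNA assay and normalized to cypB mRNA, knockdown compared with random-sequence Qneg siRNA as negative control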
Description: For mRNA measurement, branch DNA technology from Genospectra (CA) was used according to manufacturer's specification. Human monocytes (CD14+) treated with LPS induce TNF-α-specific mRNA within approximately 2 hrs, followed by peak levels of TNF-α protein 2 hrs later. siRNAs were screened for knockdown activity by transfecting monocytes with siRNA candidate sequences using Lipofectamine 2000, treating infected cells with LPS, and measuring TNF-α mRNA levels approximately 16 hrs later.
To quantitate mRNA level in the cells, both house keeping gene (cypB) and target gene (TNF-α) mRNA were measured, and the reading for TNF-α was normalized with cypB to obtain relative luminescence unit.
Qneg represents a random siRNA sequence and functions as the negative control in these experiments.

[3] = system: TNF-α; experiment: mouse LPS response, TNF-α in blood; assay type: in vivo; details: 2 mg/kg siRNA, with or without PN73; vs negative controls
Description: Normal [mouse type] mice were treated with various concentrations of LPS by intraperitoneal or intravenous injections. LPS responsiveness was determined by measuring levels of TNF-α in blood that was sampled various times following the LPS injection. A linear range of TNF-α induction was found between 10 ng and 100 ng for LPS injection by IP administration and up to 25 ng by IV injection. The average time for maximal TNF-α induction is 70 minutes following LPS injection.
The LPS induction was performed 24 hr following the last siRNA injection, 0.2 ug LPS and blood was collected at 90 minutes following LPS injection.
Three studies of 30 animals each dosing by the following schedules: 4 consecutive days; 8 consecutive days; and 11 consecutive days. LPS induction was performed at 24 hr post siRNA injection, 25 ng LPS (IP). Blood was drawn 70 minutes following LPS injection. […] Results from measurements and 8 and 11 days gave variable results owing to technical problems partly arising from repeated tail injections.

[4] = system: interferon response markers (IL-1β, INF-α, IL-6, IL-8, IL-12, MIP-1α, IFN-γ, TNF-α); experiment: interferon responsiveness, marker protein ELISA; assay type: cell-based
Description: (§1) Interferon responsiveness was assayed by ELISA (protein) and bDNA (mRNA levels).

[5] = system: IL-1β mRNA; experiment: interferon responsiveness, IL-1β mRNA (bDNA); assay type: cell-based; details: siRNA complexed with lipofectamine; 100 nM or 200 nM for TNF-α9
Description: as §1

“AAUCCUCAGCCUCUUCUCCUU (siRNA; chemistry not fully specified) [LC13]” was tested, and the “Relative effect of siRNA, paw score” value ([1]; group TNF #4) was “Overall low paw score”, the “TNF-α knockdown activity (FIG. 6-C)” value ([2]; absence of PN73, 0-2.5 nM) was “little knockdown activity” and the “KD (%) TNF-α” value ([2]; siRNA 4 nM complexed with 1.6 uM PN73) was 48.29%. The “KD (%) TNF-α” value ([2]; siRNA 4 nM complexed with 1.6 uM PN509) was 25.04%, the “KD (%) TNF-α” value ([2]; siRNA 20 nM complexed with 0.5 uM PN250) was 20.65% and the “KD (%) TNF-α” value ([2]; siRNA 20 nM complexed with 0.75 uM PN250) was 18.04%. For the same sequence, the “KD (%) TNF-α” value ([2]; siRNA 20 nM complexed with 1 uM PN250) was 31.35%, the “decrease in TNF-α gene expression relative to Qneg control (FIG. 6-B)” value ([2]; siRNA complexed with PN73 1:1, 0-2.5 nM) was about 15% and the “circulating TNF-α resulting from LPS induction” value [3] was “lowered amounts of circulating TNF-α”.
For “UAGCCCAUGUUGUAGCAAA (siRNA; delivered with peptide PN73, further chemistry not given here) [TNF-α9]”, the “Relative effect of siRNA, effectiveness relative to Ramicade by week 8” value ([1]; group TNF #7) was “LC20 and TNF-α9 are more”, the “RA progression by paw score at week 8 (FIG. 4)” value ([1]; siRNA delivered with PN73) was “delayed RA progression” and the “Relative protein expression level of IFN-γ” value ([4]; Lipofectamine transfection) was “Background”. The “Relative protein expression level of IL-12” value ([4]; Lipofectamine transfection) was “Background”, the “Relative protein expression level of INF-α” value ([4]; Lipofectamine transfection) was “Background” and the “IL-1β, IL-6 and MIP-1α protein expression levels” value ([4]; transfection with lipofectamine) was “increase”. For the same sequence, the “IL-1β mRNA levels” value [5] was “significant increase”.
